Data: PubChem BioAssay AID328 (DTP/NCI, 2004)
Several values for one entry are separate records, joined by “and”; a condition that tells them apart may be missing. Equal entries are not always repeated. Inconclusive results and toxic doses are left out.

Test system: BDF1 mice, P388 leukemia ip, median survival T/C
Experiment: NCI In Vivo Anticancer Drug Screen. Data for tumor model P388 Leukemia (intraperitoneal) in B6D2F1 (BDF1) mice
Settings: endpoint: median survival time, higher = longer survival
In short: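 Transplantable tumour in mice; compound vs vehicle dosing; survival scored; ratio of treated to control reported.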

[1] = dose: 100.0 mg/kg/injection, schedule: Q04DX003 (ip), vehicle: saline
[2] = dose: 200.0 mg/kg/injection, schedule: Q04DX003 (ip), vehicle: saline
[3] = dose: 400.0 mg/kg/injection, schedule: Q04DX003 (ip), vehicle: saline
[4] = dose: 25.0 mg/kg/injection, schedule: Q01DX009 (ip), vehicle: Klucel (hydroxypropylcellulose) (HPC)
[5] = dose: 25.0 mg/kg/injection, schedule: Q04DX003 (ip), vehicle: saline with Tween-80
[6] = dose: 50.0 mg/kg/injection, schedule: Q04DX003 (ip), vehicle: saline with Tween-80
[7] = dose: 100.0 mg/kg/injection, schedule: Q04DX003 (ip), vehicle: saline with Tween-80
[8] = dose: 200.0 mg/kg/injection, schedule: Q04DX003 (ip), vehicle: saline with Tween-80
[9] = dose: 400.0 mg/kg/injection, schedule: Q04DX003 (ip), vehicle: saline with Tween-80
[10] = dose: 50.0 mg/kg/injection, schedule: Q01DX009 (ip), vehicle: saline with Tween-80
[11] = dose: 100.0 mg/kg/injection, schedule: Q01DX009 (ip), vehicle: saline with Tween-80
[12] = dose: 200.0 mg/kg/injection, schedule: Q01DX009 (ip), vehicle: saline with Tween-80

CC1(C(N)=O)OCCO1
T/C [1]: 100 % of control | T/C [2]: 95 % of control | T/C [3]: 95 % of control

N#Cc1sc2ccccc2c1CBr
T/C (dose: 12.5 mg/kg/injection, schedule: Q01DX009 (ip), vehicle: Klucel (hydroxypropylcellulose) (HPC)): 104 % of control | T/C (dose: 18.75 mg/kg/injection, schedule: Q04DX003 (ip), vehicle: Klucel (hydroxypropylcellulose) (HPC)): 108 % of control | T/C [4]: 108 % of control | T/C (dose: 37.5 mg/kg/injection, schedule: Q04DX003 (ip), vehicle: Klucel (hydroxypropylcellulose) (HPC)): 108 % of control

O=C(/C=C/c1ccccc1)N1CCOCC1
T/C (dose: 50.0 mg/kg/injection, schedule: Q04DX003 (ip), vehicle: saline): 95 % of control | T/C [1]: 95 % of control

ClCC1CNC(c2ccccc2)O1 (configuration not stated)
T/C (dose: 12.5 mg/kg/injection, schedule: Q04DX003 (ip), vehicle: saline with Tween-80): 101 % of control | T/C [5]: 104 % of control

CCN(CC)CCNc1ccc(N=Nc2ccc(SC)cc2)c2ccccc12
T/C [4]: 105 % of control | T/C (dose: 50.0 mg/kg/injection, schedule: Q01DX009 (ip), vehicle: Klucel (hydroxypropylcellulose) (HPC)): 100 % of control | T/C (dose: 50.0 mg/kg/injection, schedule: Q04DX003 (ip), vehicle: Klucel (hydroxypropylcellulose) (HPC)): 100 % of control | T/C (dose: 100.0 mg/kg/injection, schedule: Q01DX009 (ip), vehicle: Klucel (hydroxypropylcellulose) (HPC)): 105 % of control | T/C (dose: 100.0 mg/kg/injection, schedule: Q04DX003 (ip), vehicle: Klucel (hydroxypropylcellulose) (HPC)): 104 % of control | T/C (dose: 200.0 mg/kg/injection, schedule: Q04DX003 (ip), vehicle: Klucel (hydroxypropylcellulose) (HPC)): 90 % of control

NC(=O)N/C=C1\CCCOC1=O
T/C [6]: 111 % of control | T/C [7]: 101 % of control | T/C [8]: 104 % of control | T/C [9]: 109 % of control

CCN(CCS)Cc1ccccc1
T/C [5]: 100 % of control | T/C [6]: 104 % of control | T/C [7]: 109 % of control

C/C(=C\c1ccc(N(C)C)cc1C)[N+](=O)[O-]
T/C [10]: 116 % of control and 118 % of control | T/C [11]: 114 % of control and 124 % of control | T/C [12]: 122 % of control

CCOC(=O)C(C)(OCC)OCC
T/C (dose: 50.0 mg/kg/injection, schedule: Q01DX009 (ip), vehicle: saline): 105 % of control | T/C (dose: 100.0 mg/kg/injection, schedule: Q01DX009 (ip), vehicle: saline): 110 % of control | T/C (dose: 100.0 mg/kg/injection, schedule: Q01DX009 (ip), vehicle: water): 98 % of control | T/C [1]: 100 % of control | T/C (dose: 100.0 mg/kg/injection, schedule: Q04DX003 (ip), vehicle: water): 104 % of control | T/C (dose: 200.0 mg/kg/injection, schedule: Q01DX009 (ip), vehicle: saline): 115 % of control | T/C (dose: 200.0 mg/kg/injection, schedule: Q01DX009 (ip), vehicle: water): 101 % of control | T/C [2]: 91 % of control | T/C (dose: 200.0 mg/kg/injection, schedule: Q04DX003 (ip), vehicle: water): 95 % of control | T/C [3]: 91 % of control | T/C (dose: 400.0 mg/kg/injection, schedule: Q04DX003 (ip), vehicle: water): 100 % of control

O=[N+]([O-])c1cccc(CS(=O)(=O)c2ccccc2)c1-c1c(CS(=O)(=O)c2ccccc2)cccc1[N+](=O)[O-]
T/C (dose: 100.0 mg/kg/injection, schedule: Q04DX003 (ip), vehicle: saline sonified): 95 % of control | T/C (dose: 200.0 mg/kg/injection, schedule: Q04DX003 (ip), vehicle: saline sonified): 100 % of control | T/C (dose: 400.0 mg/kg/injection, schedule: Q04DX003 (ip), vehicle: saline sonified): 86 % of control

O=C(Nc1cccc(Cl)c1)Nc1ccccc1Cl
T/C [7]: 97 % of control | T/C [8]: 108 % of control | T/C [9]: 91 % of control

Oc1ccc(I)c2cccnc12
T/C (dose: 62.5 mg/kg/injection, schedule: Q01DX010 (ip), vehicle: carboxymethylcellulose (CMC)): 90 % of control | T/C (dose: 250.0 mg/kg/injection, schedule: Q01DX010 (ip), vehicle: carboxymethylcellulose (CMC)): 100 % of control | T/C (dose: 500.0 mg/kg/injection, schedule: Q01DX010 (ip), vehicle: carboxymethylcellulose (CMC)): 110 % of control

O=C(O)/C=C/c1ccc(Cl)cc1Cl
T/C [10]: 95 % of control | T/C [11]: 90 % of control | T/C [12]: 90 % of control

C[n+]1ccc(NC(=O)c2ccc(NC(=O)c3cccc(C(=O)Nc4ccc(C(=O)Nc5cc[n+](C)cc5)cc4)c3)cc2)cc1
T/C (dose: 66.0 mg/kg/injection, schedule: Q04DX003 (ip), vehicle: saline with Tween-80): 160 % of control | T/C [7]: 239 % of control
